The text below walks through data of US11786586B2, “Carbohydrate structures and uses thereof” (AOA Dx, priority 2016, dated 2023).

Data set [1] relates to EL4-GD2+ cells. Nature of the data set: 3H-thymidine incorporation (proliferation) assay, EL4-GD2+ stimulator cells. The note with it: 25 μg/mL Mitomycin for 1 h. Format: cell-based, mouse. How it is done: (§1) EL4-GD2+ cells and control Jurkat cells were treated with 25 μg/mL Mitomycin (Sigma) for 1 h to arrest proliferation. After the cells were washed three times with media to remove Mitomycin, they were plated in 96-well plates at 2×10^5 cells/well. Single cell suspensions of splenocytes were obtained from twice immunized (as above) and from vehicle-injected control mice. Cells were separated following the protocol of the EasySep Negative Selection Mouse T-cell Enrichment Kit (Stemcell Technologies). […] The T-cells were plated at a ratio of 10:1 with Mitomycin-treated EL4 or Jurkat cells. As controls, cultures of T-cells alone (no stimulating tumor cells) or T-cells treated with Concanavalin A were used. After 5 days of culture, 0.1 μCi/well 3H-thymidine (Sigma-Aldrich) was added. DNA-incorporated 3H-thymidine was counted by liquid scintillation, and data are reported as average cpm ±SD. […] After 7 days, in vitro, cell viability was assessed by staining with 0.1% Trypan Blue, and cells were counted using a hemocytometer. Bright field images were acquired using an Olympus CKX41 microscope, mounted with an Infinity 1 digital camera and Infinity Analyze software (Lumenera Corporation).

In data set [2] the test system is Jurkat cells. Put plainly: 3H-thymidine incorporation (proliferation) assay, Jurkat stimulator cells. Format: cell-based. To be noted: 25 μg/mL Mitomycin for 1 h. How it is done:
as §1
(In general: Uptake of a labelled nucleoside into DNA is a usual measure of proliferation.)

For data set [3], the system named is T-cells. Put plainly: 3H-thymidine incorporation of T-cells treated with Concanavalin A. In kind it is cell-based, mouse. To be noted: ConA stimulation; mean±SD. How it is done: as §1
The nature of data set [4]: Water solubility. Format: physicochemical. The source says: Carbohydrates were synthesized as previously described (Gilbert, M., et al. J Biol Chem. 277(1):327-337, 2002; Chiu, C. P., et al. Nat Struc Mol Bio. 11(2)163-170, 2004; and Blixt, O., Carbohydrate Research. 340(12):1963-1972, 2005) by modification of the process for phenylthio-GD2 in which the phenylthio moiety was substituted with a p-aminophenylether in the starting p-aminophenyl-β-D-lactopyranoside (AP-Lac, from Toronto Research Chemicals), that was subsequently used to enzymatically synthesize the respective ganglioside carbohydrate for conjugation to the dendrimer (see below). AP-GD2 and AP-GD3 were water soluble (>20 mg/ml). The measured molecular weights of AP-GD2 (1218 g/mol) and AP-GD3 (927 g/mol) corresponded to expected values. Structures were verified by 1D and 2D NMR spectroscopy and mass spectrometry (EI-MS). The AP-GD2 and AP-GD3 intermediates were purified to >99% purity by size-exclusion chromatography (Superdex 30 16 mm×85 cm column, GE Health Care) before their application in the synthesis of the tetrameric vaccines.

`CO[C@@]12[C@H](COC(N)=O)C3=C(C(=O)C(C)=C(N)C3=O)N1C[C@@H]1N[C@@H]12` [Mitomycin]: in data set [1], the “3H-thymidine incorporation of mitomycin-treated EL4-GD2+ cells” value is 188±4 cpm. The “3H-thymidine incorporation of mitomycin-treated Jurkat cells” value in data set [2] was found to be 107±5 cpm.

Take Concanavalin A [ConA]: in data set [3], the “3H-thymidine incorporation, T-cells from Tetra-GD2 vaccinated mice” value is 19,834±309 cpm and the “3H-thymidine incorporation, T-cells from naive mice” value is recorded as 21,457±504 cpm.

p-amino phenyl ether-GD2 [AP-GD2]: the “water solubility (in words)” value in data set [4] is reported as “water-soluble”.

For p-amino phenyl ether-GD3 [AP-GD3], the “water solubility (in words)” value in data set [4] is given as “water-soluble”.
